According to ChEMBL document CHEMBL5055619, “Tetrahydrofuran-Based Transient Receptor Potential Ankyrin 1 (TRPA1) Antagonists: Ligand-Based Discovery, Activity in a Rodent Asthma Model, and Mechanism-of-Action via Cryogenic Electron Microscopy” (J Med Chem, 2021):
Values after ≈ are worked out from the molar mass of the structure shown. Values belong to the compound of their own block, whether it stands above or below them.

Tests used:
[1] = Antagonist activity at human TRPA1 expressed in CHO cells assessed as cinnamaldehyde-induced calcium flux measured after 90 mins by FLIPR assay; type: cell-based; details: 1.5 h
[2] = Oral bioavailability in rat at 1 mg/kg; type: ADME, organism-based; details: in vivo
[3] = biological target: Transient receptor potential cation channel subfamily A member 1 (Rattus norvegicus) (UniProt Q6RI86); experiment: In vivo antagonist activity at TRPA1 in AITC-induced rat pain model assessed as nocifensive behaviour at 0.86 ratio of free plasma concentration to IC50 for rat […]; type: functional, organism-based; details: concentration not given here
[4] = Lipophilicity, logD of compound; type: physicochemical; details: octanol/water
[5] = biological target: Transient receptor potential cation channel subfamily A member 1 (Rattus norvegicus) (UniProt Q6RI86); experiment: In vivo antagonist activity at TRPA1 in AITC-induced rat pain model assessed as nocifensive behaviour at 12.67 ratio of free plasma concentration to IC50 for rat […]; type: functional, organism-based; details: concentration not given here
[6] = Volume of distribution at steady stare in rat at 1 mg/kg; type: ADME, organism-based; details: in vivo, read-out: Vdss
[7] = Protein binding in rat plasma; type: ADME, cell-free; details: read-out: PPB (converted)
[8] = Antagonist activity at rat TRPA1 expressed in CHO cells assessed as cinnamaldehyde-induced calcium flux measured after 90 mins by FLIPR assay; type: cell-based; details: 1.5 h
[9] = Kinetic solubility of the compound; type: physicochemical; details: for solubility kinetic: read-out: Kinetic_solubility
[10] = biological target: Transient receptor potential cation channel subfamily A member 1 (Rattus norvegicus) (UniProt Q6RI86); experiment: In vivo antagonist activity at TRPA1 in AITC-induced rat pain model assessed as nocifensive behaviour at 43.69 ratio of free plasma concentration to IC50 for rat […]; type: functional, organism-based; details: concentration not given here
[11] = Unbound Volume of distribution at steady state in rat at 1 mg/kg; type: ADME, organism-based; details: in vivo
[12] = Apparent permeability across apical to basolateral side in MDCK cells; type: ADME, cell-based, Canis lupus familiaris; details: dog, read-out: permeability
Rattus norvegicus = species: Rattus norvegicus; experiment: Antinociceptive activity against AITC-induced rat pain model assessed as nocifensive behaviour by measuring unbound concentration; type: functional, organism-based
[13] = Metabolic stability in rat hepatocytes assessed as clearance; type: ADME, cell-based, Hepatocyte
[14] = biological target: Transient receptor potential cation channel subfamily A member 1 (Rattus norvegicus) (UniProt Q6RI86); experiment: In vivo antagonist activity at TRPA1 in AITC-induced rat pain model assessed as nocifensive behaviour at 2.94 ratio of free plasma concentration to IC50 for rat […]; type: functional, organism-based; details: concentration not given here
[15] = Half life in rat at 1 mg/kg; type: ADME, organism-based; details: in vivo
[16] = Clearance in rat at 1 mg/kg; type: ADME, organism-based; details: in vivo
[17] = Protein binding in human plasma; type: ADME, cell-free; details: read-out: PPB (converted)
[18] = Metabolic stability in rat liver microsomes assessed as clearance by LC/MS-MS analysis; type: ADME, Microsome
[19] = biological target: Transient receptor potential cation channel subfamily A member 1 (Rattus norvegicus) (UniProt Q6RI86); experiment: In vivo antagonist activity at TRPA1 in AITC-induced rat pain model assessed as nocifensive behaviour at 8 ratio of free plasma concentration to IC50 for rat […]; type: functional, organism-based
[20] = biological target: Transient receptor potential cation channel subfamily A member 1 (Rattus norvegicus) (UniProt Q6RI86); experiment: In vivo antagonist activity at TRPA1 in AITC-induced rat pain model assessed as nocifensive behaviour at 0.76 ratio of free plasma concentration to IC50 for rat […]; type: functional, organism-based; details: concentration not given here
[21] = biological target: Transient receptor potential cation channel subfamily A member 1 (Rattus norvegicus) (UniProt Q6RI86); experiment: In vivo antagonist activity at TRPA1 in AITC-induced rat pain model assessed as nocifensive behaviour at 21.57 ratio of free plasma concentration to IC50 for rat […]; type: functional, organism-based; details: concentration not given here
[22] = Metabolic stability in human liver microsomes assessed as clearance by LC/MS-MS analysis; type: ADME, Microsome
[23] = biological target: Transient receptor potential cation channel subfamily A member 1 (Rattus norvegicus) (UniProt Q6RI86); experiment: In vivo antagonist activity at TRPA1 in AITC-induced rat pain model assessed as nocifensive behaviour at 44.77 ratio of free plasma concentration to IC50 for rat […]; type: functional, organism-based; details: concentration not given here
[24] = biological target: Transient receptor potential cation channel subfamily A member 1 (Rattus norvegicus) (UniProt Q6RI86); experiment: In vivo antagonist activity at TRPA1 in AITC-induced rat pain model assessed as nocifensive behaviour at 0.10 ratio of free plasma concentration to IC50 for rat […]; type: functional, organism-based; details: concentration not given here
[25] = biological target: Transient receptor potential cation channel subfamily A member 1 (Rattus norvegicus) (UniProt Q6RI86); experiment: In vivo antagonist activity at TRPA1 in AITC-induced rat pain model assessed as nocifensive behaviour at 0.17 ratio of free plasma concentration to IC50 for rat […]; type: functional, organism-based; details: concentration not given here
[26] = biological target: Transient receptor potential cation channel subfamily A member 1 (Rattus norvegicus) (UniProt Q6RI86); experiment: In vivo antagonist activity at TRPA1 in AITC-induced rat pain model assessed as nocifensive behaviour at 3.17 ratio of free plasma concentration to IC50 for rat […]; type: functional, organism-based; details: concentration not given here
[27] = biological target: Transient receptor potential cation channel subfamily A member 1 (Rattus norvegicus) (UniProt Q6RI86); experiment: In vivo antagonist activity at TRPA1 in AITC-induced rat pain model assessed as nocifensive behaviour at 0.53 ratio of free plasma concentration to IC50 for rat […]; type: functional, organism-based; details: concentration not given here
[28] = biological target: Transient receptor potential cation channel subfamily A member 1 (Rattus norvegicus) (UniProt Q6RI86); experiment: In vivo antagonist activity at TRPA1 in AITC-induced rat pain model assessed as nocifensive behaviour at 0.36 ratio of free plasma concentration to IC50 for rat […]; type: functional, organism-based; details: concentration not given here
[29] = biological target: Transient receptor potential cation channel subfamily A member 1 (Rattus norvegicus) (UniProt Q6RI86); experiment: In vivo antagonist activity at TRPA1 in AITC-induced rat pain model assessed as nocifensive behaviour at 4.45 ratio of free plasma concentration to IC50 for rat […]; type: functional, organism-based; details: concentration not given here
[30] = biological target: Transient receptor potential cation channel subfamily A member 1 (Rattus norvegicus) (UniProt Q6RI86); experiment: In vivo antagonist activity at TRPA1 in AITC-induced rat pain model assessed as nocifensive behaviour at 1.21 ratio of free plasma concentration to IC50 for rat […]; type: functional, organism-based; details: concentration not given here
[31] = biological target: Transient receptor potential cation channel subfamily A member 1 (Rattus norvegicus) (UniProt Q6RI86); experiment: In vivo antagonist activity at TRPA1 in AITC-induced rat pain model assessed as nocifensive behaviour at 2.97 ratio of free plasma concentration to IC50 for rat […]; type: functional, organism-based; details: concentration not given here

Sequence of Transient receptor potential cation channel subfamily A member 1 (Rattus norvegicus) (Q6RI86 whole entry): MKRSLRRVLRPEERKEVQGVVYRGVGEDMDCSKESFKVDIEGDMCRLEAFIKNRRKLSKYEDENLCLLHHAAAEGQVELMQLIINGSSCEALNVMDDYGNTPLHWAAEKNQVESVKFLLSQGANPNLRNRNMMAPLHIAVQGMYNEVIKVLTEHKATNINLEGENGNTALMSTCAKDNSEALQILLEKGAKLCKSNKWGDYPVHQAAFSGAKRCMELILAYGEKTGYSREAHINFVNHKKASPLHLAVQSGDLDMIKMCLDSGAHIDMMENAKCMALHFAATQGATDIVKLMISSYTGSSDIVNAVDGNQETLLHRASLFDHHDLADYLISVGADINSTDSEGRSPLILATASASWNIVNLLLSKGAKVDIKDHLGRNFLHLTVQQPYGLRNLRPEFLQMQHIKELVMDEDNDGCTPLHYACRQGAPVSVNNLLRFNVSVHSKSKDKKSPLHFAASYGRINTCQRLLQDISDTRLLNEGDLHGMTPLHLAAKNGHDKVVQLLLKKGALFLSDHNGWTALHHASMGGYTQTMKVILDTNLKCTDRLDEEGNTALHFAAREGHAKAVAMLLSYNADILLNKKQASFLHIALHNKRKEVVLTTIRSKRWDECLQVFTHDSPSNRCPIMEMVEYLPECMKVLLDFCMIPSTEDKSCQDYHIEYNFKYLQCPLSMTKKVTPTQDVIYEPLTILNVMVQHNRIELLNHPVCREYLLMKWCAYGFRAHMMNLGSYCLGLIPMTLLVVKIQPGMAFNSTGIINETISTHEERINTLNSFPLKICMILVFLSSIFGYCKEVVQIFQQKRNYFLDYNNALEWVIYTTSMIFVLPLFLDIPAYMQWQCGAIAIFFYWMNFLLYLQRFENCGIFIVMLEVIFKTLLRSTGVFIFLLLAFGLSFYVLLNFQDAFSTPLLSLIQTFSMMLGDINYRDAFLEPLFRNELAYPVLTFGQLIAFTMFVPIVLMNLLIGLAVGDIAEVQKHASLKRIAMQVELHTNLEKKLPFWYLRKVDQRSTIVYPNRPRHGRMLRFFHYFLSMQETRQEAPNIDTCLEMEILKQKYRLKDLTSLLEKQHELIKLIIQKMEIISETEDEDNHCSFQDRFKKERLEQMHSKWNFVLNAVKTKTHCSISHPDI

Compound: Cn1cnc2ncn(Cc3nc([C@H]4[C@@H]5CN(c6cc(Cl)ccn6)C[C@@H]54)no3)c(=O)c21
- IC50 [1]: 25 nM
- bioavailability [2]: 39%
- inhibition [3]: 59%
- logD [4]: 1.8
- inhibition [5]: 48%
- Vd [6]: 1.8 L/kg
- fraction unbound [7]: 0.087
- IC50 [8]: 18 nM
- solubility kinetic [9]: 97 µM (≈ 41.2 µg/mL)
- inhibition [10]: 94%
- Vduss [11]: 20.7 L/kg
- Papp A→B [12]: 17.3 ×10⁻⁶ cm/s
- EC50 (Rattus norvegicus): 220 nM
- CLhep predicted [13]: 36 mL/min/kg
- inhibition [14]: 64%
- half-life [15]: 1.8 h
- clearance [16]: 12 mL/min/kg
- fraction unbound [17]: 0.07

Compound: Cn1cnc2ncn(Cc3nc([C@H]4[C@@H]5C[C@H](c6ccccc6)C[C@@H]54)no3)c(=O)c21
- IC50 [1]: 1900 nM
- logD [4]: 2.7
- solubility kinetic [9]: 54 µM (≈ 21 µg/mL)

Compound: Cn1cnc2ncn(Cc3nn([C@@H]4CC[C@@H](c5ccc(Cl)cc5)C4)c(=O)o3)c(=O)c21
- CLhep predicted [18]: 36 mL/min/kg
- IC50 [1]: 9.6 nM
- logD [4]: 2.4
- CLhep predicted [22]: 12 mL/min/kg

Compound: O=c1c2cccnc2cnn1Cc1nc([C@H]2[C@@H]3CN(c4cc(Cl)ccn4)C[C@@H]32)no1
- CLhep predicted [18]: 27 mL/min/kg
- IC50 [1]: 54 nM
- logD [4]: 2.7
- CLhep predicted [22]: 14 mL/min/kg

Compound: Cn1cnc2ncn(Cc3nc([C@H]4[C@@H]5CN(c6cccc(Cl)c6)C[C@@H]54)no3)c(=O)c21
- IC50 [1]: 2.9 nM
- bioavailability [2]: 20%
- logD [4]: 2.9
- Vd [6]: 2.3 L/kg
- fraction unbound [7]: 0.018
- IC50 [8]: 7.9 nM
- Kinetic_solubility [9]: 97 µM
- inhibition [28]: 12%
- inhibition [29]: 99%
- Vduss [11]: 128 L/kg
- Papp A→B [12]: 15.5 ×10⁻⁶ cm/s
- EC50 (Rattus norvegicus): 7.9 nM
- CLhep predicted [13]: 35 mL/min/kg
- half-life [15]: 6.4 h
- inhibition [30]: 64%
- inhibition [31]: 99%
- clearance [16]: 4.5 mL/min/kg
- fraction unbound [17]: 0.011

Second part, the compound after the results:

- CLhep predicted [18]: 28 mL/min/kg
- IC50 [1]: 20 nM
- bioavailability [2]: 53%
- inhibition [19]: 20%
- logD [4]: 1.2
- Vd [6]: 1.3 L/kg
- inhibition [20]: 20%
- IC50 [8]: 18 nM
- solubility kinetic [9]: 120 µM (≈ 48.6 µg/mL)
- inhibition [21]: 37%
- CLhep predicted [22]: 5.6 mL/min/kg
- Vduss [11]: 3.14 L/kg
- Papp A→B [12]: 9 ×10⁻⁶ cm/s
- EC50 (Rattus norvegicus): 390 nM
- CLhep predicted [13]: 24 mL/min/kg
- half-life [15]: 1.4 h
- inhibition [23]: 100%
- clearance [16]: 17 mL/min/kg
- fraction unbound [17]: 0.334
Compound: Cn1cnc2ncn(Cc3nn(C[C@H](F)c4ccc(Cl)cc4)c(=O)o3)c(=O)c21

- CLhep predicted [18]: 34 mL/min/kg
- IC50 [1]: 4600 nM
- logD [4]: 1.3
- CLhep predicted [22]: 11 mL/min/kg
Compound: Cn1cnc2ncn(Cc3nn(CCOc4cccc(Cl)c4)c(=O)o3)c(=O)c21

- CLhep predicted [18]: 35 mL/min/kg
- IC50 [1]: 100 nM
- logD [4]: 1.9
- IC50 [8]: 80 nM
- CLhep predicted [22]: 12 mL/min/kg
Compound: Cn1cnc2ncn(Cc3nc(CCc4ccc(Cl)cc4)no3)c(=O)c21

- IC50 [1]: 1.9 nM
- logD [4]: 2.7
- solubility kinetic [9]: 1.4 µM (≈ 0.541 µg/mL)
Compound: Cn1cnc2ncn(Cc3nc([C@H]4[C@@H]5C=C(c6ccccc6)C[C@@H]54)no3)c(=O)c21

- inhibition [24]: 30%
- CLhep predicted [18]: 32 mL/min/kg
- IC50 [1]: 8.1 nM
- bioavailability [2]: 32%
- logD [4]: 3
- Vd [6]: 2.8 L/kg
- fraction unbound [7]: 0.02
- inhibition [25]: 36%
- IC50 [8]: 8.2 nM
- solubility kinetic [9]: 13 µM (≈ 5.51 µg/mL)
- inhibition [26]: 87%
- CLhep predicted [22]: 15 mL/min/kg
- Vduss [11]: 140 L/kg
- Papp A→B [12]: 20.7 ×10⁻⁶ cm/s
- EC50 (Rattus norvegicus): 6.2 nM
- CLhep predicted [13]: 43 mL/min/kg
- inhibition [27]: 63%
- half-life [15]: 2.5 h
- clearance [16]: 15 mL/min/kg
- fraction unbound [17]: 0.009
Compound: Cc1cnn2ncn(Cc3nc([C@H]4[C@@H]5CN(c6cccc(Cl)c6)C[C@@H]54)no3)c(=O)c12
